Results from ChEMBL document CHEMBL1156569, “Structural basis for the improved drug resistance profile of new generation benzophenone non-nucleoside HIV-1 reverse transcriptase inhibitors” (J Med Chem, 2008).

Key:
Format in all cases: functional, organism-based
Settings in all cases: Human immunodeficiency virus 1, HeLa
[1] = tested on: Human immunodeficiency virus 1; test: Antiviral activity against NNRTI-resistant HIV1 with reverse transcriptase K103N/L100I mutant in HeLa cells by MAGI assay
[2] = tested on: Human immunodeficiency virus 1; test: Antiviral activity against NNRTI-resistant HIV1 with reverse transcriptase K103N/P225H mutant in HeLa cells by MAGI assay
[3] = tested on: Human immunodeficiency virus 1; test: Antiviral activity against wild type HIV1 in HeLa cells by MAGI assay
[4] = tested on: Human immunodeficiency virus 1; test: Antiviral activity against NNRTI-resistant HIV1 with reverse transcriptase Y181C mutant in HeLa cells by MAGI assay
[5] = tested on: Human immunodeficiency virus 1; test: Antiviral activity against NNRTI-resistant HIV1 with reverse transcriptase K103N mutant in HeLa cells by MAGI assay
[6] = tested on: Human immunodeficiency virus 1; test: Antiviral activity against NNRTI-resistant HIV1 with reverse transcriptase V106A mutant in HeLa cells by MAGI assay
[7] = tested on: Human immunodeficiency virus 1; test: Antiviral activity against NNRTI-resistant HIV1 with reverse transcriptase Y188L mutant in HeLa cells by MAGI assay
[8] = tested on: Human immunodeficiency virus 1; test: Antiviral activity against NNRTI-resistant HIV1 with reverse transcriptase L100I mutant in HeLa cells by MAGI assay
[9] = tested on: Human immunodeficiency virus 1; test: Antiviral activity against NNRTI-resistant HIV1 with reverse transcriptase G190A mutant in HeLa cells by MAGI assay
[10] = tested on: Human immunodeficiency virus 1; test: Antiviral activity against NNRTI-resistant HIV1 with reverse transcriptase G190S mutant in HeLa cells by MAGI assay
[11] = tested on: Human immunodeficiency virus 1; test: Antiviral activity against NNRTI-resistant HIV1 with reverse transcriptase G190E mutant in HeLa cells by MAGI assay
[12] = tested on: Human immunodeficiency virus 1; test: Antiviral activity against NNRTI-resistant HIV1 with reverse transcriptase V106M mutant in HeLa cells by MAGI assay
[13] = tested on: Human immunodeficiency virus 1; test: Antiviral activity against NNRTI-resistant HIV1 with reverse transcriptase V108I mutant in HeLa cells by MAGI assay
[14] = tested on: Human immunodeficiency virus 1; test: Antiviral activity against NNRTI-resistant HIV1 with reverse transcriptase V106I mutant in HeLa cells by MAGI assay
[15] = tested on: Human immunodeficiency virus 1; test: Antiviral activity against NNRTI-resistant HIV1 with reverse transcriptase K101E mutant in HeLa cells by MAGI assay
[16] = tested on: Human immunodeficiency virus 1; test: Antiviral activity against NNRTI-resistant HIV1 with reverse transcriptase E138K mutant in HeLa cells by MAGI assay
[17] = tested on: Human immunodeficiency virus 1; test: Antiviral activity against NNRTI-resistant HIV1 with reverse transcriptase P236L mutant in HeLa cells by MAGI assay
[18] = tested on: Human immunodeficiency virus 1; test: Antiviral activity against NNRTI-resistant HIV1 with reverse transcriptase Y188C mutant in HeLa cells by MAGI assay
[19] = tested on: Human immunodeficiency virus 1; test: Antiviral activity against NNRTI-resistant HIV1 with reverse transcriptase K103N/G190A mutant in HeLa cells by MAGI assay
[20] = tested on: Human immunodeficiency virus 1; test: Antiviral activity against NNRTI-resistant HIV1 with reverse transcriptase K103N/V108I mutant in HeLa cells by MAGI assay
[21] = tested on: Human immunodeficiency virus 1; test: Antiviral activity against NNRTI-resistant HIV1 with reverse transcriptase K103N/Y181C mutant in HeLa cells by MAGI assay
[22] = tested on: Human immunodeficiency virus 1; test: Antiviral activity against NNRTI-resistant HIV1 with reverse transcriptase V106A/Y181C mutant in HeLa cells by MAGI assay
[23] = tested on: Human immunodeficiency virus 1; test: Antiviral activity against NNRTI-resistant HIV1 with reverse transcriptase V108I/Y181C mutant in HeLa cells by MAGI assay
[24] = tested on: Human immunodeficiency virus 1; test: Antiviral activity against NNRTI-resistant HIV1 with reverse transcriptase V106I/Y181C mutant in HeLa cells by MAGI assay
[25] = tested on: Human immunodeficiency virus 1; test: Antiviral activity against NNRTI-resistant HIV1 with reverse transcriptase P225H mutant in HeLa cells by MAGI assay

SMILES	IC50 [1]	IC50 [2]	IC50 [3]	IC50 [4]	IC50 [5]	IC50 [6]	IC50 [7]	IC50 [8]	IC50 [9]	IC50 [11]	IC50 [13]	IC50 [14]	IC50 [15]	IC50 [16]	IC50 [17]	IC50 [18]	IC50 [20]	IC50 [21]	IC50 [22]	IC50 [24]	also measured
Cc1cc(S(N)(=O)=O)ccc1NC(=O)COc1ccc(Cl)cc1C(=O)c1cc(Cl)cc(C#N)c1	0.9 nM	0.7 nM	0.2 nM	0.4 nM	0.4 nM	1.1 nM	14 nM	0.3 nM	0.6 nM	0.4 nM	0.7 nM	0.8 nM	0.6 nM	1.6 nM	0.4 nM	0.04 nM	0.9 nM	1.2 nM	1 nM	3.8 nM	IC50 [10]: 0.7 nM; IC50 [12]: 0.4 nM; IC50 [19]: 3.3 nM; IC50 [23]: 0.6 nM
Cc1cc(S(N)(=O)=O)ccc1NC(=O)COc1ccc(Cl)cc1C(=O)c1cc(F)cc(C(F)(F)F)c1	2.8 nM	1.4 nM	1.2 nM	2.1 nM	1.7 nM	9.3 nM	66 nM	1.1 nM	4 nM	3.9 nM	1.8 nM	2.3 nM	3.1 nM	2.7 nM	3.4 nM	0.3 nM	2.6 nM	3.3 nM	13 nM	10 nM	IC50 [25]: 0.7 nM; IC50 [19]: 13 nM; IC50 [23]: 3.2 nM
O=C(COc1ccc(Cl)cc1C(=O)c1ccccc1)Nc1ccccc1	269 nM	56 nM	2 nM	162 nM	25 nM	696 nM	> 2000 nM	21 nM	31 nM	8.3 nM	19 nM	18 nM	13 nM	27 nM	5.4 nM	122 nM	347 nM	1050 nM	902 nM	1900 nM	IC50 [10]: 135 nM; IC50 [12]: 155 nM; IC50 [25]: 3.3 nM; IC50 [19]: 661 nM; IC50 [23]: 638 nM
O=C1Nc2ccc(Cl)cc2C(C#CC2CC2)(C(F)(F)F)O1 (single isomer, unassigned) [EFAVIRENZ]	1200 nM		0.4 nM	0.8 nM	17 nM	0.8 nM	154 nM	21 nM	5.9 nM	1 nM	1.8 nM	0.9 nM	2.3 nM	1.2 nM	0.6 nM	1.2 nM	94 nM	44 nM	2 nM	3 nM	IC50 [10]: 89 nM; IC50 [12]: 7.2 nM; IC50 [25]: 1.3 nM; IC50 [23]: 2.7 nM
CC(C)Nc1cccnc1N1CCN(C(=O)c2cc3cc(NS(C)(=O)=O)ccc3[nH]2)CC1 [DELAVIRDINE]	> 2000 nM	> 2000 nM	88 nM		1600 nM	750 nM		773 nM	21 nM			22 nM	537 nM		> 2000 nM	1620 nM	> 2000 nM	> 2000 nM	> 2000 nM	943 nM	IC50 [19]: 730 nM
Cc1ccnc2c1NC(=O)c1cccnc1N2C1CC1 [NEVIRAPINE]	> 2000 nM	> 2000 nM	53 nM	> 2000 nM	> 2000 nM	1870 nM	> 2000 nM	304 nM	> 2000 nM	83 nM	294 nM	89 nM	409 nM	71 nM	59 nM	801 nM	> 2000 nM	> 2000 nM	> 2000 nM	> 2000 nM	IC50 [10]: > 2000 nM; IC50 [12]: > 2000 nM; IC50 [25]: 118 nM; IC50 [19]: > 2000 nM; IC50 [23]: > 2000 nM
